Tested on: LG0703-F948-PDC complex spheroid viability
Assay: Anticancer human tumor LG0703-F948-PDC patient-derived lung adenocarcinoma cell line growth inhibition [RAS]
Details: for IC50: curve of first compound; for viability, T/C: stronger effect = lower value; active = viability on the fitted dose curve at most 10% of control; inactive = the rest
Description: RAS pathway inhibitors in Combinations in Complex Spheroids
A high-throughput screen of multi-cell type tumor spheroids was designed to identify active combinations of RAS pathway inhibitors and targeted small molecules. Complex spheroids include a stromal component modeled by human endothelial cells (HUVEC) and fibroblasts modeled by human mesenchymal stem cells (MSCs). The concentration ranges selected for each drug and investigational agent were based upon clinically achievable concentrations if the clinical Cmax of the agent was known.
Compounds. The drugs and investigational agents: abemaciclib (NSC768073), cobimetinib (NSC768068), divarasib (GDC6063, NSC841802), docetaxel (NSC628503), GDC-1971 (RLY-1971, NSC841576), gemcitabine (NSC613327), inavolisib (NSC800729), ipatasertib (NSC767898), KB-0742 (NSC834161), MRTX-1133 (NSC836407), osimertinib (NSC779217), RMC-4630 (NSC839698), RMC-6236 (NSC851965), RMC-6291 (NSC852671), Ro-3306 (NSC812927), sapanisertib (NSC764658), SN-38 (NSC673596), staurosporine (NSC755774), SY5609 (NSC837396), and tovorafenib (DAY101, NSC766906), were obtained from the National Cancer Institute (NCI) Developmental Therapeutics Program Chemical Repository. The FDA-approved anticancer drug set is available from the NCI Developmental Therapeutics Program. […] The stock solutions were prepared in dimethyl sulfoxide (DMSO, Sigma-Aldrich, St. Louis, MO, cat. D2650) at 800-fold the tested concentration and stored at -70 degrees C prior to their use. All drugs and investigational agents were tested over a range starting from a high concentration at or near the clinical Cmax and decreasing in half-log increments. If the clinical Cmax for an agent had not been determined, the highest concentration tested was 10 microM.
Cell Culture. All cells were maintained in an incubator at 37 degrees C and 5% CO2 with 95% humidity. The PDC lines were cultured according to standard operating procedures established by the NCI PDMR. All PDCs were thawed and cultured in Matrigel-coated flasks prepared with a working solution of 1X Ham's F-12 nutrient mix, without supplementation (Invitrogen, Waltham, MA, cat. 11765054), 100 U/mL penicillin-streptomycin (Invitrogen, cat. 15140122), and 2.5% Matrigel (Corning Inc., Corning, NY, cat. 354248) for the first three passages. The 362531-283-R-J2-PDC and 782815-120-R-J1-PDC lines were cultured in 6C/Colon 1B media, which includes advanced DMEM/F-12 (Thermo Fisher Scientific, cat. 12634028), 10 mM HEPES (Thermo Fisher Scientific, cat. 15630080), 1X GlutaMAX supplement (Thermo Fisher Scientific, cat. 35050061), 0.1 mg/mL primocin (InvivoGen, San Diego, CA, cat. ant-pm-2), 10% defined fetal bovine serum, heat inactivated (HyClone Laboratories Inc., Logan, UT, cat. SH30070.03HI), 50% L-WRN conditioned media (ATCC, cat. CRL-3276), 1.25 mM N-Acetyl-L-cysteine (Sigma-Aldrich, cat. A9165), 10 mM nicotinamide (Sigma-Aldrich, cat. N0636), 1X B-27 supplement (Thermo Fisher Scientific, cat. 17504044), 1X N-2 supplement (Thermo Fisher Scientific, cat. 17502048), 50 ng/mL human EGF (Thermo Fisher Scientific, cat. PHG0311), and 10 microM Y-27632 dihydrochloride (Tocris Bioscience, cat. 1254). The K12877-001-R-J1-PDC line was cultured in 6I media, which includes all 6C/Colon 1B media plus 10 ng/mL human FGF-10 (PeproTech, cat. 100-26), 1 ng/mL human FGF-2 (PeproTech, cat. 100-18B), 1 µM prostaglandin E2 (Tocris Bioscience, cat. 2296), […] hydrocortisone (Sigma-Aldrich, cat. H4001), and […] bovine insulin (Sigma-Aldrich, cat. I6634). The K86415-001-R-J1-PDC line was cultured in 6D media, which includes all 6C/Colon 1B media components minus the L-WRN conditioned media. The 485176-168-R4-J1-PDC was cultured in PANC media, which includes all 6C/Colon 1B media plus 100 ng/mL human FGF-10 (PeproTech, cat. 100-26), 500 nM SB-431542 (Selleckchem, cat. S1067), and 10 nM gastrin (Tocris Bioscience, cat. 3006). […]

[1] = second compound 0.0316 µM, first compound 0.0316 µM
[2] = second compound 0.0316 µM, first compound 0.1 µM
[3] = second compound 0.0316 µM, first compound 0.316 µM
[4] = second compound 0.0316 µM, first compound 1 µM
[5] = second compound 0.0316 µM, first compound 3.16 µM
[6] = second compound 0.0316 µM, first compound 10 µM
[7] = second compound 0.1 µM, first compound 0.0316 µM
[8] = second compound 0.1 µM, first compound 0.1 µM
[9] = second compound 0.1 µM, first compound 0.316 µM
[10] = second compound 0.1 µM, first compound 1 µM
[11] = second compound 0.1 µM, first compound 3.16 µM
[12] = second compound 0.1 µM, first compound 10 µM
[13] = second compound 0.316 µM, first compound 0.0316 µM
[14] = second compound 0.316 µM, first compound 0.1 µM
[15] = second compound 0.316 µM, first compound 0.316 µM
[16] = second compound 0.316 µM, first compound 1 µM
[17] = second compound 0.316 µM, first compound 3.16 µM
[18] = second compound 0.316 µM, first compound 10 µM
[19] = second compound 1 µM, first compound 0.0316 µM
[20] = second compound 1 µM, first compound 0.1 µM
[21] = second compound 1 µM, first compound 0.316 µM
[22] = second compound 1 µM, first compound 1 µM
[23] = second compound 1 µM, first compound 3.16 µM
[24] = second compound 1 µM, first compound 10 µM
[25] = second compound 3.16 µM, first compound 0.0316 µM
[26] = second compound 3.16 µM, first compound 0.1 µM
[27] = second compound 3.16 µM, first compound 0.316 µM
[28] = second compound 3.16 µM, first compound 1 µM
[29] = second compound 3.16 µM, first compound 3.16 µM
[30] = second compound 3.16 µM, first compound 10 µM
[31] = second compound 10 µM, first compound 0.0316 µM
[32] = second compound 10 µM, first compound 0.1 µM
[33] = second compound 10 µM, first compound 0.316 µM
[34] = second compound 10 µM, first compound 1 µM
[35] = second compound 10 µM, first compound 3.16 µM
[36] = second compound 10 µM, first compound 10 µM
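Throughout, for viability, T/C: 100% = DMSO vehicle wells.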

Cc1nc(N2CCC3(CC2)COC(C)C3N)c(CO)nc1Sc1ccnc(N)c1Cl (stereo unspecified) + C#Cc1c(F)ccc2cc(O)cc(-c3ncc4c(N5CC6CCC(C5)N6)nc(OCC56CCCN5CC(F)C6)nc4c3F)c12
active: viability, T/C [12] 4.95% | viability, T/C [18] 6.94% | viability, T/C [24] 7.42% | viability, T/C [29] 9.6% | viability, T/C [30] 5.81% | viability, T/C [35] 6.12% | viability, T/C [36] 2.83%
< 31.6 nM: IC50 (second compound 10 µM)
85.8 nM: IC50 (second compound 1 µM)
181 nM: IC50 (second compound 0.316 µM)
inactive: viability, T/C [1] 76.2% | viability, T/C [2] 73.7% | viability, T/C [3] 47.9% | viability, T/C [4] 35.5% | viability, T/C [5] 20.1% | viability, T/C [6] 10.7% | viability, T/C [7] 83.4% | viability, T/C [8] 63% | viability, T/C [9] 47.4% | viability, T/C [10] 35.9% | viability, T/C [11] 17.6% | viability, T/C [13] 68.1% | viability, T/C [14] 60.1% | viability, T/C [15] 40.3% | viability, T/C [16] 26.4% | viability, T/C [17] 14.4% | viability, T/C [19] 52.4% | viability, T/C [20] 51.7% | viability, T/C [21] 35.8% | viability, T/C [22] 19.9% | viability, T/C [23] 15.5% | viability, T/C [25] 50.3% | viability, T/C [26] 41.5% | viability, T/C [27] 28.5% | viability, T/C [28] 15% | viability, T/C [31] 28.7% | viability, T/C [32] 29.3% | viability, T/C [33] 20.1% | viability, T/C [34] 10.6%
287 nM: IC50 (second compound 0.1 µM)
32.7 nM: IC50 (second compound 3.16 µM)
370 nM: IC50 (second compound 0.0316 µM)

NC1c2ccccc2OC12CCN(c1cnc3c(N4CCCc5ncccc54)n[nH]c3n1)CC2 (stereo unspecified) + C#Cc1c(F)ccc2cc(O)cc(-c3ncc4c(N5CC6CCC(C5)N6)nc(OCC56CCCN5CC(F)C6)nc4c3F)c12
< 31.6 nM: IC50 (second compound 0.1 µM) | IC50 (second compound 0.316 µM) | IC50 (second compound 1 µM) | IC50 (second compound 3.16 µM) | IC50 (second compound 10 µM)
active: viability, T/C [5] 5.44% | viability, T/C [6] 2.29% | viability, T/C [10] 8.26% | viability, T/C [11] 4.2% | viability, T/C [12] 2.16% | viability, T/C [16] 6.72% | viability, T/C [17] 4.41% | viability, T/C [18] 2.49% | viability, T/C [22] 6.62% | viability, T/C [23] 3.17% | viability, T/C [24] 1.84% | viability, T/C [27] 11.1% | viability, T/C [28] 6.14% | viability, T/C [29] 4.26% | viability, T/C [30] 1.29% | viability, T/C [33] 5.38% | viability, T/C [34] 2.35% | viability, T/C [35] 2.25% | viability, T/C [36] 0.66%
inactive: viability, T/C [1] 56.9% | viability, T/C [2] 32.3% | viability, T/C [3] 14.9% | viability, T/C [4] 16.3% | viability, T/C [7] 48.8% | viability, T/C [8] 27.7% | viability, T/C [9] 16.5% | viability, T/C [13] 43.7% | viability, T/C [14] 30.5% | viability, T/C [15] 14.4% | viability, T/C [19] 28.2% | viability, T/C [20] 21.9% | viability, T/C [21] 9.98% | viability, T/C [25] 28.2% | viability, T/C [26] 15.1% | viability, T/C [31] 21% | viability, T/C [32] 13.5%
43.3 nM: IC50 (second compound 0.0316 µM)

Nc1ccn(C2OC(CO)C(O)C2(F)F)c(=O)n1 (stereo unspecified) + C#Cc1c(F)ccc2cc(O)cc(-c3ncc4c(N5CC6CCC(C5)N6)nc(OCC56CCCN5CC(F)C6)nc4c3F)c12
3.85 nM: IC50 (second compound 3.16 µM)
6.33 nM: IC50 (second compound 0.0316 µM)
< 3.16 nM: IC50 (second compound 10 µM)
6.43 nM: IC50 (second compound 0.316 µM)
5.01 nM: IC50 (second compound 1 µM)
8.21 nM: IC50 (second compound 0.1 µM)
inactive: viability, T/C (second compound 0.0316 µM, first compound 0.00316 µM) 68.2% | viability, T/C (second compound 0.0316 µM, first compound 0.01 µM) 37.7% | viability, T/C [1] 30.6% | viability, T/C [2] 34.1% | viability, T/C [3] 25.7% | viability, T/C [4] 28.3% | viability, T/C (second compound 0.1 µM, first compound 0.00316 µM) 74.2% | viability, T/C (second compound 0.1 µM, first compound 0.01 µM) 45% | viability, T/C [7] 26.9% | viability, T/C [8] 27.4% | viability, T/C [9] 31.9% | viability, T/C [10] 27% | viability, T/C (second compound 0.316 µM, first compound 0.00316 µM) 63.7% | viability, T/C (second compound 0.316 µM, first compound 0.01 µM) 40.8% | viability, T/C [13] 31.6% | viability, T/C [14] 29% | viability, T/C [15] 26.6% | viability, T/C [16] 23.5% | viability, T/C (second compound 1 µM, first compound 0.00316 µM) 59% | viability, T/C (second compound 1 µM, first compound 0.01 µM) 35.4% | viability, T/C [19] 32.7% | viability, T/C [20] 23.8% | viability, T/C [21] 26.4% | viability, T/C [22] 25.6% | viability, T/C (second compound 3.16 µM, first compound 0.00316 µM) 53% | viability, T/C (second compound 3.16 µM, first compound 0.01 µM) 34.7% | viability, T/C [25] 34.2% | viability, T/C [26] 30.9% | viability, T/C [27] 32% | viability, T/C [28] 26.9% | viability, T/C (second compound 10 µM, first compound 0.00316 µM) 41.5% | viability, T/C (second compound 10 µM, first compound 0.01 µM) 29% | viability, T/C [31] 32.5% | viability, T/C [32] 33.5% | viability, T/C [33] 34% | viability, T/C [34] 30.7%

Source: PubChem BioAssay AID2060890 (Molecular Pharmacology Branch, DTP, NCI, 2025)
